Data from patent US10233157B2, “SIK inhibitor for use in a method of treating an inflammatory and/or immune disorder” (Dana-Farber Cancer Institute, Inc., priority 2012, dated 2019).
Like-named read-outs stand apart in the source and are kept apart here.

Assays:
[1] = test system: protein kinases that possess a threonine residue at the gatekeeper site (Src, Lck, Yes, BTK, FGF and Ephrin receptors); assay: Kinase profiling, kinases with threonine at the gatekeeper site; type: biochemical; conditions: kinase panel; 1 μM KIN112, 0.1 μM HG-9-91-01
Protocol: Recombinant SIK1, SIK2, SIK3 were expressed as GST-fusion proteins in HEK293 cells and purified on a glutathione-Sepharose column. […] FLAG-CRTC3 was immunoprecipitated using anti-FLAG M2 agarose, washed in kinase buffer (50 mM Tris/HCl pH 7.4, 10 mM Mg acetate, 0.1 mM EGTA, 2 mM DTT) and reactions initiated by adding 4 U/ml recombinant kinase with 0.1 mM ATP (specific activity 3000 cpm/pmol). Phosphorylation of CRTC3 was monitored by autoradiography as well as immunoblotting using phosphospecific antibodies raised against Ser162, Ser329 and Ser370. […] Kinase profiling was performed as previously described (7) and performed by the International Centre for Kinase Profiling (www.kinase-screen.mrc.ac.uk).

RAW264.7 macrophages = assay: IL-10 mRNA in RAW264.7 cells with shRNA knockdown of SIKs; type: cell-based; conditions: for IC50: Mus musculus, RAW264.7, 1 h
Protocol: . (FIG. 16A) mRNA abundance of SIK1, SIK2 and SIK3 in RAW264.7 macrophages. Gene expression was measured by qPCR. The number of copies of each SIK mRNA was normalized to GAPDH. (mean±SD, n=3). (FIG. 16B) The efficiency of SIK knock-down. RAW264.7 cells were transduced with lentiviral vectors encoding a control shRNA or shRNAs targetting SIK1, SIK2 and SIK3. The expression of SIK1, SIK2 and SIK3 was measured by qPCR and normalized to that of control cells using GAPDH (mean±SD, n=3). […]. The levels of IL-10 mRNA were measured by qPCR and normalized using GAPDH. Data are presented with the highest level of expression set to 1 (mean±SD, n=3). […] (FIG. 16D) Increased IL-10 expression in cells with decreased SIK expression. […].
RNAi in Macrophages RAW264.7 cells or BMDMs were transfected with 100 pmol of SMARTpool siRNA oligos against CREB, CRTC1, CRTC2, CRTC3 or a non-targetting control (Dharmacon) using AMAXA nucleofection. Cells were cultured for 24 h prior to incubation with inhibitors for 1 h followed by stimulation for 1 h with 100 ng/ml LPS. Gene expression was measured by real-time quantitative PCR. For shRNA knockdown of SIKs, lentivirus was generated according to the manufacturer's instructions (Sigma) and RAW264.7 cells were infected using virus harvested 48 and 72 h post-transfection. Infected cells were selected using 3 μg/ml puromycin. QPCR

STAT3 = assay: Immunoblotting of STAT3 phosphorylation in LPS-stimulated macrophages; type: cell-based, mouse
Protocol: FIGS. 2A to 2G. […] As in A except that cells were stimulated for 2 h with LPS.
Bone-marrow derived macrophages were differentiated for 7 days in DMEM supplemented with 5 ng/ml recombinant M-CSF (R&D systems), 2 mM glutamine, 10% foetal calf serum, penicillin and streptomycin.
Cells were rinsed in ice-cold PBS and extracted in lysis buffer (50 mM Tris/HCl pH 7.4, 1 mM EDTA, 1 mM EGTA, 50 mM NaF, 5 mM sodium pyrophosphate, 10 mM sodium α-glycerol 1-phosphate, 1 mM dithiothreitol, 1 mM sodium orthovanadate, 0.27 M sucrose, 1% (v/v) Triton X-100, 1 μg/ml aprotinin, 1 μg/ml leupeptin and 1 mM phenylmethylsulphonyl fluoride). Cell extracts were clarified by centrifugation at 14000×g for 10 min at 4° C. and protein concentrations determined using the Bradford assay. To detect proteins in cell lysates, 20 μg of protein extract was separated by SDS-PAGE. After transfer to PVDF membranes, proteins were detected by immunoblotting and visualized by treating the blots with ECL (Amersham) followed by autoradiography. The antibody recognizing CREB phosphorylated at Ser133 was from Cell Signalling Technology and the one detecting α-tubulin was obtained from Sigma.

TBK1/IKKε−/− fibroblasts = assay: nurr77 mRNA in IL-1 stimulated TBK1/IKKε−/− embryonic fibroblasts; type: cell-based, mouse; conditions: fibroblasts not expressing the IKK-related kinases
Protocol: Bone marrow-derived macrophages were differentiated for 7 days in DMEM supplemented with 5 ng/ml recombinant M-CSF (R&D systems), 2 mM glutamine, 10% foetal calf serum (FCS), penicillin and streptomycin. RAW264.7 cells and immortalized mouse embryonic fibroblasts (MEFs) from TBK1/IKKε^+/−, TBK1/IKKε^−/−, LKB1^+/+ and LKB1^−/− mice were cultured in DMEM containing 10% FCS, 2 mM glutamine and penicillin and streptomycin, while THP-1 monocytes were grown in RPMI-1640 supplemented with 10% FCS and antibiotics. For the culture of primary human macrophages, PBMCs were isolated from human blood using Ficoll and the monocytes were purified using anti-CD14 magnetic beads (Miltenyi Biotec). Monocytes were differentiated into macrophages for 6 days in the presence of 100 ng/ml M-CSF.

CREB luciferase reporter = CREB luciferase reporter assay in HEK293 cells; type: cell-based; conditions: HEK293, 2 μM MRT67307, 10 μM forskolin 2 h
Protocol: FIG. 5. […] HEK293 cells were co-transfected with DNA encoding a CREB luciferase reporter construct and pTK-RL. […] Luciferase activity was measured with a dual luciferase assay system (Promega) and was normalized to Renilla luciferase activity (n=3, mean±SEM).
HEK293 cells were co-transfected with DNA encoding FLAG-CRTC3 or phosphomutants along with a CREB firefly luciferase reporter construct (pCRE-luc from Stratagene) and pTK-RL which encodes renilla luciferase under the control of a constitutive promoter. At 24 h post-transfection, cells were treated with or without 10 μM KIN112 for a further 24 h. Firefly luciferase activity was measured with a dual luciferase assay system (Promega) and was normalized to Renilla luciferase activity.

Row | Compound | inhibition of protein kinases with a threonine residue at the gatekeeper site [1] | IC50 (RAW264.7 macrophages; read-out: IC50 for stimulation of IL-10 mRNA, SIK1/2/3 shRNA cells, 1 μg/ml Pam3CSK4 1 h) | IC50 (RAW264.7 macrophages; read-out: IC50 for stimulation of IL-10 mRNA, control shRNA cells, 1 μg/ml Pam3CSK4 1 h) | IL-10 mRNA expression in SIK-depleted versus wild-type macrophages (RAW264.7 macrophages; suboptimal concentration (100 nM)) | LPS-stimulated phosphorylation of STAT3 (STAT3; 2 μM MRT67307) | phosphorylation of STAT3 (STAT3; LPS-stimulated macrophages from IL-10−/− mice, presence or absence of compound) | transcription of CREB-dependent nurr77 gene (TBK1/IKKε−/− fibroblasts) | CREB-dependent luciferase transcription (CREB luciferase reporter)
1 | COc1ccc(N(C(=O)Nc2c(C)cccc2C)c2cc(Nc3ccc(N4CCN(C)CC4)cc3)ncn2)c(OC)c1 [HG-9-91-01, 1-(2,4-dimethoxyphenyl)-3-(2,6-dimethylphenyl)-1-(6-((4-(4-methylpiperazin-1-yl)phenyl)amino)pyrimidin-4-yl)urea] | inhibited | 150 ± 20 nM | 260 ± 10 nM | 4 fold |  |  |  | 
2 | O=C(NCCCNc1nc(Nc2cccc(CN3CCOCC3)c2)ncc1C1CC1)C1CCC1 [MRT67307] |  |  |  |  | increased | no phosphorylation of STAT3 occurred | could still enhance | increases
